Patent US9546172B2, “Pyrazolo[3,4-d]pyrimidine and pyrazolo[2,3-d]pyrimidine compounds as kinase inhibitors” (Pharmacyclics LLC, priority 2011, dated 2017)

Key:
Assay type in all cases: biochemical
[1] = target: T1, Btk (Homo sapiens, UniProt Q06187); test: Btk in vitro inhibitory activity (one of Methods A, B, C); settings: determined in one of three in vitro assays (Examples 125-127)
T1 construct: purified from insect cells as a full-length construct containing a N-terminal 6×-His tag; 6xHis (N); host or cells: insect cells (baculovirus Sf21 in Method B)
Procedure: The Btk IC50s of compounds disclosed herein was determined in one of the three in vitro assays described in Examples 125-127.
(§1) Btk kinase activity was determined using a time-resolved fluorescence resonance energy transfer (TR-FRET) methodology. Measurements were performed in a reaction volume of 50 μL using 96-well assay plates. […] The reaction was quenched by the addition of 1.2 equivalents of EDTA (relative to divalent cation) in 25 μL of 1× Lance buffer (Perkin-Elmer). Streptavidin-APC (Perkin-Elmer) and Eu-labeled p-Tyr100 antibody (Perkin-Elmer) in 1× Lance buffer were added in a 25 μL volume to give final concentrations of 100 nM and 2.5 nM, respectively, and the mixture was allowed to incubate for one hour. The TR-FRET signal was measured on a multimode plate reader with an excitation wavelength (λEx) of 330 nm and detection wavelengths (λEm) of 615 and 665 nm. Activity was determined by the ratio of the fluorescence at 665 nm to that at 615 nm. For each compound, enzyme activity was measured at various concentrations of compound. Negative control reactions were performed in the absence of inhibitor in replicates of six, and two no-enzyme controls were used to determine baseline fluorescence levels Inhibition constants, Ki(app), were obtained using the program BatchKi (Kuzmic et al. (2000), Anal. Biochem. 286:45-50). IC50s were obtained according to the equation: IC50={Ki(app)/(1+[ATP]/Km^ATP)}+[E]total/2; For all kinases, [ATP]=Km^ATP, [Btk]total=0.5 nM and [Lck]total=6 nM.
Kinase activity is measured in vitro using electrophoretic mobility shift assay. The kinase reactions are assembled in a total volume of 25 μL in 384 well plates. […] The reaction is incubated for one hour and is quenched by the addition of 45 μL of termination buffer (100 mM HEPES, pH7.5, 0.01% Triton X-100, 30 mM EDTA). The terminated reactions are analyzed using 12 channel LabChip® 3000 microfluidic detection instrument (Caliper Life Sciences). The enzymatic phosphorylation of the peptide results in a change in net charge, enabling electrophoretic separation of product from substrate peptide. As substrate and product peptides are separated, two peaks of fluorescence are observed. Change in the relative fluorescence intensity of the substrate and product peaks is the parameter measured, reflecting enzyme activity. In the presence of an inhibitor, the ratio between product and substrate is altered: the signal of the product decreases, while the signal of the substrate increases.
Activity in each sample is determined as the product to sum ratio (PSR): P/(S+P), where P is the peak height of the product peptide and S is the peak height of the substrate peptide. For each compound, enzyme activity is measured at various concentrations (12 concentrations of compound spaced by 3× dilution intervals). Negative control samples (0%-inhibition in the absence of inhibitor) and positive control samples (100%-inhibition, in the presence of 20 mM EDTA) are assembled in replicates of four and are used to calculate %-inhibition values for each inhibitor at each concentration. Percent inhibition (Pinh) is determined using following equation: Pinh=(PSR0%−PSRinh)/(PSR0%−PSR100%)*100, where PSRinh is the product sum ratio in the presence of inhibitor, PSR0% is the average product sum ration in the absence of inhibitor and PSR100% is the average product sum ratio in 100%-inhibition control samples;
The IC50 values of inhibitors are determined by 4 parameter sigmoidal dose-response model fitting of the inhibition curves (Pinh versus inhibitor concentration) using XLfit 4 software.
Human Btk kinase (Genbank accession # NP_000052) was purified from insect cells as a full-length construct containing a N-terminal 6×-His tag. Btk kinase activity was determined using a radiometric filter binding assay. Measurements are performed in a low reaction volume 384-well assay plates. […]

[2] = target: T2, Tec (Homo sapiens, UniProt P42680); test: Tec kinase inhibition
T2 sequence (P42680 1-631): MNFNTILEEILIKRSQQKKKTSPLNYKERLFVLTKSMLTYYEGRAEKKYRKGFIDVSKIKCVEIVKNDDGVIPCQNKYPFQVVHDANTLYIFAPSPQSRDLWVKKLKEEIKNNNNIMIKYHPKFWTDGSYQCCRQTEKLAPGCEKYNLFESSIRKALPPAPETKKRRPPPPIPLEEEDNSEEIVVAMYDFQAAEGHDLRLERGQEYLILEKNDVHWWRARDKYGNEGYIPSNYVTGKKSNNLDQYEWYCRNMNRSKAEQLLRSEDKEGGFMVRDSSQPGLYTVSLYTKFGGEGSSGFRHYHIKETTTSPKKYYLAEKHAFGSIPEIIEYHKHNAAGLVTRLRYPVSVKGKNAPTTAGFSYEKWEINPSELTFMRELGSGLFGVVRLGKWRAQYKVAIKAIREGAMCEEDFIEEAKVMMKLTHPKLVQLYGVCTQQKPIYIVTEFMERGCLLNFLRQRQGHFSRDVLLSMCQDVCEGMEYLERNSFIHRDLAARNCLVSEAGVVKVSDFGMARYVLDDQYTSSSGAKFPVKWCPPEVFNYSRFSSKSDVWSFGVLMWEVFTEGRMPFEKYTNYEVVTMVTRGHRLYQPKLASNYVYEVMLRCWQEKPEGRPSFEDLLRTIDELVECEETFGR
Procedure: as §1

[3] = target: Lck (Homo sapiens, UniProt P06239); test: Lck kinase inhibition
Procedure: as §1

[4] = target: C-src (Homo sapiens, UniProt P12931); test: C-src kinase inhibition
Procedure: as §1

[5] = target: Lyn (Homo sapiens, UniProt P07948); test: Lyn kinase inhibition
[6] = target: RET (Homo sapiens, UniProt P07949); test: RET kinase inhibition
[7] = target: BLK (Homo sapiens, UniProt P51451); test: BLK kinase inhibition
Procedure: as §1

[8] = target: T3, BMX (Homo sapiens, UniProt P51813); test: BMX kinase inhibition
T3 sequence (P51813 1-675): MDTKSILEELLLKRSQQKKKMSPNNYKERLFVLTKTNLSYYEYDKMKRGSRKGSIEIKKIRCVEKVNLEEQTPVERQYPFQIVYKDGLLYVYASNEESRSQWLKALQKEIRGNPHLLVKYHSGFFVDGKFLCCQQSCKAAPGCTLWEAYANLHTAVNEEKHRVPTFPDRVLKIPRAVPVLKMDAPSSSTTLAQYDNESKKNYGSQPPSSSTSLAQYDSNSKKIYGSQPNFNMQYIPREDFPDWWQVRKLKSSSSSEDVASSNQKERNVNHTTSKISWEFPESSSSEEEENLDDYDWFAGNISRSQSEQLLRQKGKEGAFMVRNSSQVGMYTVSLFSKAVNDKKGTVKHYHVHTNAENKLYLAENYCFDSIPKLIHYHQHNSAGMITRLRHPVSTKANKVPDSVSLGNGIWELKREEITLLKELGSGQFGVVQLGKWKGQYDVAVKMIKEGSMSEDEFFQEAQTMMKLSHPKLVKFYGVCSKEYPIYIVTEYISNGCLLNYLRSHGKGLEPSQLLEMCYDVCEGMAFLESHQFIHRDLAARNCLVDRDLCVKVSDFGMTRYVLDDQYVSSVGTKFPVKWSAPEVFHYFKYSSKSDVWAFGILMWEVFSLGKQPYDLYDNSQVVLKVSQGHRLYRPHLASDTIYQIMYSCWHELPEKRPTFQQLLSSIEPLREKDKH

[9] = target: CSK (Homo sapiens, UniProt P41240); test: CSK kinase inhibition
[10] = target: EGFR (Homo sapiens, UniProt P00533); test: EGFR kinase inhibition
Sequence of EGFR (P00533 25-1210): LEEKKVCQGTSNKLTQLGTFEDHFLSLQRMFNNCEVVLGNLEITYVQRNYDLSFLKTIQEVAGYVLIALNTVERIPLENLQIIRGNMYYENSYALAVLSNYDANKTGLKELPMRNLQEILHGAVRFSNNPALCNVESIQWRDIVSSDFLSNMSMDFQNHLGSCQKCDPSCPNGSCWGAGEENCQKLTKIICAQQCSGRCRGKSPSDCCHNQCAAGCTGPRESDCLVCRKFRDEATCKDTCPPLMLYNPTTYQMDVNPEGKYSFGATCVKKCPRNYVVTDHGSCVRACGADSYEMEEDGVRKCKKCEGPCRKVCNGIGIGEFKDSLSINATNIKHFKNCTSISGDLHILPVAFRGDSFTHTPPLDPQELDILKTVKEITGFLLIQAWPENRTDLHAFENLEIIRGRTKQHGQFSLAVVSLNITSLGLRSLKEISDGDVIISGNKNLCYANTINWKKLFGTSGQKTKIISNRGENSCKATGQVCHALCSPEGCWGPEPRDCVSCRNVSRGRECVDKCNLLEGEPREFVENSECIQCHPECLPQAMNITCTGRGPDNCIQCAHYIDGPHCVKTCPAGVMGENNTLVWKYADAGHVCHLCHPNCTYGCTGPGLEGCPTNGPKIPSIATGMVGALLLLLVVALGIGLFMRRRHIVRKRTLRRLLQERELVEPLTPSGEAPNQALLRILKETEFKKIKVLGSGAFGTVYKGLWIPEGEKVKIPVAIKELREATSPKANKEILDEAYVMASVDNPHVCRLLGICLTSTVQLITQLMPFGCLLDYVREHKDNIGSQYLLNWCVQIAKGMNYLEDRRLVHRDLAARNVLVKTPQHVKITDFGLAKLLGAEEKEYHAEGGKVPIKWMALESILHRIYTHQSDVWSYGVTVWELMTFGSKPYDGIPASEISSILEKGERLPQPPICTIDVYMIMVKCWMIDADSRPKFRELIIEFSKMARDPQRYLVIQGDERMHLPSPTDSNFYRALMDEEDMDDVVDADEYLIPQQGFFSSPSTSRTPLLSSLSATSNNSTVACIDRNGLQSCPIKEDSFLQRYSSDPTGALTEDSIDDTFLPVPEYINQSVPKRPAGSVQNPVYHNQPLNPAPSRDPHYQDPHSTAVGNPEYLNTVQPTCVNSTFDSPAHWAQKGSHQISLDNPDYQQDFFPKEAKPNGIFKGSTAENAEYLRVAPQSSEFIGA

Sequence of Lck (P06239 whole entry): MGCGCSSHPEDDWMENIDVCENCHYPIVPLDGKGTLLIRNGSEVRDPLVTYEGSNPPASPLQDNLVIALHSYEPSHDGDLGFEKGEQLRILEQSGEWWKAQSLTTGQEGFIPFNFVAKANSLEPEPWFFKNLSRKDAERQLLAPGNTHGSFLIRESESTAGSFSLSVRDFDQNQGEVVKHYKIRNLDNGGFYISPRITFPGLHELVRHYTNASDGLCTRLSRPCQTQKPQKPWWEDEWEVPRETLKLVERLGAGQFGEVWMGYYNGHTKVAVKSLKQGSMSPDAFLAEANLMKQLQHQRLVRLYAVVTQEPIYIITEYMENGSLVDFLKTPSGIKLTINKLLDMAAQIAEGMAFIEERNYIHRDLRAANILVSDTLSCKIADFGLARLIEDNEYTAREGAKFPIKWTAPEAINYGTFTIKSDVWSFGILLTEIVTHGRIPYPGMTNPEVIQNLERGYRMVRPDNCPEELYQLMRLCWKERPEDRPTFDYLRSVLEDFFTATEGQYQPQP
Sequence of Lyn (P07948 whole entry): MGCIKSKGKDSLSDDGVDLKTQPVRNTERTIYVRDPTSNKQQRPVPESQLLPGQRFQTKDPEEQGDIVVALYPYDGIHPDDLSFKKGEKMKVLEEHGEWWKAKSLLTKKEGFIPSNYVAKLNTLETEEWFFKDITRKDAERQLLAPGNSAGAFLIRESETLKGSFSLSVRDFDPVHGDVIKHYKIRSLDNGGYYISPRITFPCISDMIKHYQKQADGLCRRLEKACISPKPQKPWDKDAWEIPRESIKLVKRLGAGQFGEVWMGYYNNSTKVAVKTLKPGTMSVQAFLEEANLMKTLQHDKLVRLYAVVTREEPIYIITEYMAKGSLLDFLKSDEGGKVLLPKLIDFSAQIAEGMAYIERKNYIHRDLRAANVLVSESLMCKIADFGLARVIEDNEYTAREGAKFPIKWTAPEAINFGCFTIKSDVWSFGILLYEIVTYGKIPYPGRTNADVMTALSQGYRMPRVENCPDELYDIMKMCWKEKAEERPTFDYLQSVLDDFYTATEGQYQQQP
Sequence of CSK (P41240 whole entry): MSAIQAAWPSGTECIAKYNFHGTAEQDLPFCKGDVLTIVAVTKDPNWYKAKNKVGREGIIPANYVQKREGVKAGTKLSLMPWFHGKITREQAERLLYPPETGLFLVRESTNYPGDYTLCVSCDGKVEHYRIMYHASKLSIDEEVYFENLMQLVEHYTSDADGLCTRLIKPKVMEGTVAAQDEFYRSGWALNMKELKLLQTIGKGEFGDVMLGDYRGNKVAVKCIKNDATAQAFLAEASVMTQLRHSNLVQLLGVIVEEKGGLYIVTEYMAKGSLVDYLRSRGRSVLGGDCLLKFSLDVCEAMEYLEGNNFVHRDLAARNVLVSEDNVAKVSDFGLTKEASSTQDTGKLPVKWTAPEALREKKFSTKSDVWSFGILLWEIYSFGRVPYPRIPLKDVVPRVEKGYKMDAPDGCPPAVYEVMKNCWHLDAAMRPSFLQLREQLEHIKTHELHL
T1 sequence (Q06187 whole entry): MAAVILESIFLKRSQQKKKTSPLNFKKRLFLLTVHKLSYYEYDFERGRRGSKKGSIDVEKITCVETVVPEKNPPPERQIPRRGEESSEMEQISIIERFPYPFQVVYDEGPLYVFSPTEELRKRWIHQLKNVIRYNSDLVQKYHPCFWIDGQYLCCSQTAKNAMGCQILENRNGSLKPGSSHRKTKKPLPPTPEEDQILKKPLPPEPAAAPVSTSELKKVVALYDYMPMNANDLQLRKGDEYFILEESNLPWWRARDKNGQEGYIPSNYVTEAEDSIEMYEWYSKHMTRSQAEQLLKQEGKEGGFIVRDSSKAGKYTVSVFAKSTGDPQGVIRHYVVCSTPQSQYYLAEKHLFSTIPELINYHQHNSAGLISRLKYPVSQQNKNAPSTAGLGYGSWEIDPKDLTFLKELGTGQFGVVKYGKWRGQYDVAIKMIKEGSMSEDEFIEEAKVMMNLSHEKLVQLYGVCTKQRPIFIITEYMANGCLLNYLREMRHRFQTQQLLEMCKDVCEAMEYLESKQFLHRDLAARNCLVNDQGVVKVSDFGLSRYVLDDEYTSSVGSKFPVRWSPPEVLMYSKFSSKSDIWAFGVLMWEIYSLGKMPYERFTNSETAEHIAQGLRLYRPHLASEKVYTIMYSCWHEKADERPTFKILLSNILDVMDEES
Sequence of C-src (P12931 whole entry): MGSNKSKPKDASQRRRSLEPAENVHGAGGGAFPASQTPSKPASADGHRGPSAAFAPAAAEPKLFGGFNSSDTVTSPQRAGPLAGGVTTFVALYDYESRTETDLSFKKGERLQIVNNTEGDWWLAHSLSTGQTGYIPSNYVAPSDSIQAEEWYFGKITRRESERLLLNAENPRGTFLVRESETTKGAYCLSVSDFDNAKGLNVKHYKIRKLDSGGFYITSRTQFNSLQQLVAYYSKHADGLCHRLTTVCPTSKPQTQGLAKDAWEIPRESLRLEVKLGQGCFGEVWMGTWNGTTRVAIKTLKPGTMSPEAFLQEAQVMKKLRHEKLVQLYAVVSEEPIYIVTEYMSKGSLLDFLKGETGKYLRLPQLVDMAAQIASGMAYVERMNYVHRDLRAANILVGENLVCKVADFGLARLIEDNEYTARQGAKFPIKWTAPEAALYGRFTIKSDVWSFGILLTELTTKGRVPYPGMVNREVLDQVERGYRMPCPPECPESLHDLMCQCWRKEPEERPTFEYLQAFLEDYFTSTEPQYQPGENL
Sequence of BLK (P51451 whole entry): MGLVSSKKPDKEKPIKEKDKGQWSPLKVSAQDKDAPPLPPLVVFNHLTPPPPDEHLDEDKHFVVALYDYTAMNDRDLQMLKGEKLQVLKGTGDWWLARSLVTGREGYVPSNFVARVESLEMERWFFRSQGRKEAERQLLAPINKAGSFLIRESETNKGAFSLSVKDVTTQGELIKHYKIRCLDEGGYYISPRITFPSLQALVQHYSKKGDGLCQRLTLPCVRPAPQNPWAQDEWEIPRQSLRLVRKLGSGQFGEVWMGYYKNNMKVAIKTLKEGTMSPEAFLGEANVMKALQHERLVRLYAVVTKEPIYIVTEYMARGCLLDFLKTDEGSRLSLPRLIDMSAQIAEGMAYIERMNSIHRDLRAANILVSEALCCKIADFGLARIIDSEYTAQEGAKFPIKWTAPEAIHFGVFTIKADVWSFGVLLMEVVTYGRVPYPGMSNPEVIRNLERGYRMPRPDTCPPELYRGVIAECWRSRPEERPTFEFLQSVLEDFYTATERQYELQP

| Structure (SMILES) | IC50 [1] [nM] | IC50 [2] [nM] | IC50 [3] [nM] | IC50 [4] [nM] | IC50 [5] [nM] | IC50 [6] [nM] | IC50 [7] [nM] | IC50 [8] [nM] | IC50 [9] [nM] | IC50 [10] [nM] |
| --- | --- | --- | --- | --- | --- | --- | --- | --- | --- | --- |
| COCCOc1ccc(-c2nn([C@@H]3CCN(C(=O)/C=C/CN(C)C)C3)c3ncnc(N)c23)cc1 [Example 2, (E)-1-((R)-3-(4-amino-3-(4-(2-methoxyethoxy)phenyl)-1H-pyrazolo[3,4-d]pyrimidin-1-yl)pyrrolidin-1-yl)-4-(dimethylamino)but-2-en-1-one] | < 100 | 100 to 1000 | > 1000 | > 1000 | > 1000 | > 1000 | < 100 | < 100 | > 1000 | – |
| COc1cc(-c2nn(-c3ccc(N(C)C(=O)/C=C/CN(C)C)cc3)c3ncnc(N)c23)ccc1C [Example 15, (E)-N-(4-(4-amino-3-(3-methoxy-4-methylphenyl)-1H-pyrazolo[3,4-d]pyrimidin-1-yl)phenyl)-4-(dimethylamino)-N-methylbut-2-enamide] | < 100 | – | < 100 | < 100 | < 100 | – | – | – | – | 100 to 1000 |
| COc1cc(-c2nn(-c3ccc(NC(=O)/C=C/CN(C)C)cc3)c3ncnc(N)c23)ccc1C [Example 16, (E)-N-(4-(4-amino-3-(3-methoxy-4-methylphenyl)-1H-pyrazolo[3,4-d]pyrimidin-1-yl)phenyl)-4-(dimethylamino)but-2-enamide] | < 100 | < 100 | < 100 | < 100 | < 100 | – | < 100 | < 100 | < 100 | < 100 |
| CN(C)C/C=C/C(=O)Nc1ccc(-n2nc(-c3ccc(Cl)cc3)c3c(N)ncnc32)cc1 [Example 17, (E)-N-(4-(4-amino-3-(4-chlorophenyl)-1H-pyrazolo[3,4-d]pyrimidin-1-yl)phenyl)-4-(dimethylamino)but-2-enamide] | < 100 | < 100 | < 100 | < 100 | < 100 | – | < 100 | < 100 | 100 to 1000 | < 100 |
| C=CC(=O)N(C)c1ccc(-n2nc(-c3ccc(C)c(OC)c3)c3c(N)ncnc32)cc1 [Example 18, N-(4-(4-amino-3-(3-methoxy-4-methylphenyl)-1H-pyrazolo[3,4-d]pyrimidin-1-yl)phenyl)-N-methylacrylamide] | < 100 | – | < 100 | < 100 | 100 to 1000 | – | – | – | – | < 100 |
| C=CC(=O)Nc1ccc(-n2nc(-c3ccc(Cl)cc3)c3c(N)ncnc32)cc1 [Example 19, N-(4-(4-amino-3-(4-chlorophenyl)-1H-pyrazolo[3,4-d]pyrimidin-1-yl)phenyl)acrylamide] | < 100 | – | < 100 | < 100 | < 100 | – | – | – | – | < 100 |
| C=CC(=O)N(C)c1cccc(-n2nc(-c3ccc(Cl)cc3)c3c(N)ncnc32)c1 [Example 22, N-(3-(4-amino-3-(4-chlorophenyl)-1H-pyrazolo[3,4-d]pyrimidin-1-yl)phenyl)-N-methylacrylamide] | < 100 | – | > 1000 | 100 to 1000 | > 1000 | – | – | – | – | < 100 |
| CN(C(=O)/C=C/CN(C)C1CC1)c1cccc(-n2nc(-c3ccc(Cl)cc3)c3c(N)ncnc32)c1 [Example 25, (E)-N-(3-(4-amino-3-(4-chlorophenyl)-1H-pyrazolo[3,4-d]pyrimidin-1-yl)phenyl)-4-(cyclopropyl(methyl)amino)-N-methylbut-2-enamide] | < 100 | < 100 | > 1000 | 100 to 1000 | > 1000 | – | 100 to 1000 | < 100 | > 1000 | < 100 |
| CN(C/C=C/C(=O)Nc1cccc(-n2nc(-c3ccc(Cl)cc3)c3c(N)ncnc32)c1)C1CC1 [Example 26, (E)-N-(3-(4-amino-3-(4-chlorophenyl)-1H-pyrazolo[3,4-d]pyrimidin-1-yl)phenyl)-4-(cyclopropyl(methyl)amino)but-2-enamide] | < 100 | – | 100 to 1000 | 100 to 1000 | 100 to 1000 | – | – | – | – | – |
| CN(C)C/C=C/C(=O)N(C)c1ccc(-n2nc(-c3ccc(Cl)cc3)c3c(N)ncnc32)nc1 [Example 28, (E)-N-(6-(4-amino-3-(4-chlorophenyl)-1H-pyrazolo[3,4-d]pyrimidin-1-yl)pyridin-3-yl)-4-(dimethylamino)-N-methylbut-2-enamide] | < 100 | – | 100 to 1000 | 100 to 1000 | > 1000 | – | – | – | – | > 1000 |
| COc1cc(-c2nn(-c3ccc(N(C)C(=O)/C=C/CN(C)C)cn3)c3ncnc(N)c23)ccc1C [Example 29, (E)-N-(6-(4-amino-3-(3-methoxy-4-methylphenyl)-1H-pyrazolo[3,4-d]pyrimidin-1-yl)pyridin-3-yl)-4-(dimethylamino)-N-methylbut-2-enamide] | < 100 | – | 100 to 1000 | < 100 | 100 to 1000 | – | – | – | – | > 1000 |
